In PubChem BioAssay AID2305 (GlaxoSmithKline (GSK), 2010) one finds IC50 data, which are given here for 61 molecules.

For the assay, the system named is P. falciparum 3D7 growth, pLDH absorbance. The experiment in a line: P. falciparum 3D7 growth inhibition, dose response, strain 3D7 (AID 2305).

Broadly, the IC50 is the midpoint of a concentration-inhibition curve. A low value points to inhibition by little substance. For the molecule `CC1=C(C(=O)Nc2cc3cn[nH]c3cc2F)C(c2cccc(O)c2F)CC(=O)N1` (stereo unspecified), the IC50 came to 630 nM.

In turn, `O=C(Nc1ccc(OC2CCN(Cc3ccc(F)cc3)C2)c(Cl)c1)c1ccc(F)cc1` (stereo unspecified) displayed an IC50 of 490 nM. This IC50 and that of the molecule before are within 1.5-fold of each other.

With `FC(F)(F)COc1ccc2ccccc2c1CNCCCCCCNCc1c(OCC(F)(F)F)ccc2ccccc12`, the IC50 stood at 350 nM.

Take `CCc1nnc2sc(-c3cccc(NC(=O)c4ccc(OC)c(Cl)c4)c3)nn12`: the IC50 amounted to 1140 nM.

`Cc1nc2ccc(S(=O)(=O)Nc3ccc(C(=O)N[C@@H](CCC(=O)O)C(=O)O)cc3)cc2c(=O)[nH]1` returned an IC50 of 1010 nM.

On to `CCOC(=O)c1c(C)n(-c2ccccc2)c2ccc(OC(=O)COc3ccc(Cl)cc3Cl)cc12`, for which the half-inhibitory concentration (IC50) turned out to be 430 nM.

In the case of `CC(=O)Nc1cccc(CNCc2ccc(-c3cnc(N4CCCC(c5ccccc5)C4)nc3)cc2)c1` (stereo unspecified), the IC50 amounted to 1190 nM.

Turning to `COc1ccccc1C(=O)Nc1ccc(Nc2nc(C)cc(N(C)C)n2)cc1`, the IC50 amounted to 790 nM. This IC50 is about 1.5-fold lower than that of the molecule before.

On to `CCc1cn2c3c(cc(C(=O)N[C@@H](Cc4ccccc4)[C@H](O)CN[C@@H](C)CC)cc13)N(C)S(=O)(=O)CC2`, for which the IC50 was determined as 70 nM.

`Cc1ccc(N2CCc3c(-c4cc5cccnc5nc4C)cc(C)nc32)c(Cl)c1` returned an IC50 of 580 nM.

In the case of `O=c1c2ccccc2[nH]c2cc(Cl)ccc12`, the IC50 is 870 nM.

Take `COCCNCc1ncsc1-c1ccc2c(Nc3cc(O)ccc3C)ccnc2c1`: the IC50 is 700 nM.

`O=C(Nc1cccc(-c2nn3ccccc3c2-c2ccnc(Nc3ccc(C(=O)N4CCOCC4)cc3)n2)c1)c1c(F)cccc1F` showed an IC50 of 380 nM.

For `O=C(Nc1ccccc1)Nc1ccc(-n2ccc(C(F)(F)F)n2)cc1`, the IC50 is 630 nM.

`O=C(/C=C/c1ccc(Cl)c(Cl)c1)NCCCCCN1CCC(NC(=O)Nc2cc(F)ccc2F)CC1` yielded an IC50 of 700 nM.

As for `Cc1cc(C(=O)CN2C(=O)NC(C)(c3ccc4ccccc4c3)C2=O)c(C)n1Cc1ccco1` (stereo unspecified), the IC50 is 660 nM.

Consider `CC(O)C1CCCCN1C(=O)c1cccc(-c2cccc(-c3nc4ccccc4[nH]3)c2)c1` (stereo unspecified), for which the IC50 is 530 nM.

Consider `Cc1nc2ccccc2c(=O)n1N=Cc1ccccc1[N+](=O)[O-]`, for which the IC50 came out at 220 nM.

Consider `C[C@@H](NCCc1cccc(Cl)c1)[C@@H](O)c1ccc(OCCCCCCOc2ccc([C@H](O)[C@@H](C)NCCc3cccc(Cl)c3)cc2)cc1`, for which the IC50 is 400 nM.

`CCCCCn1c(Sc2ccc(C#N)c([N+](=O)[O-])c2)nnc1-c1cccs1` yielded an IC50 of 780 nM.

Molecule `Cc1ccc(-c2nnc3c4ccccc4c(C)nn23)cc1S(=O)(=O)N1CCN(CCO)CC1` yielded an IC50 of 670 nM.

For the molecule `COc1cccc(Nc2nccc(-c3c(-c4cccc(NC(=O)c5c(F)cccc5F)c4)nn4ccccc34)n2)c1`, the IC50 came to 180 nM.

`COc1ccc(CCNCCCCCCNCCc2ccccc2Cl)cc1OC`: the IC50 was 660 nM.

Molecule `COc1ccccc1/C=C/C(=O)N(C)C1CCN(CCCCCNC(=O)/C=C/c2ccc(Cl)c(Cl)c2)C1` (stereo unspecified) displayed an IC50 of 870 nM.

In the case of `CCOc1ccccc1NC(=O)C(Sc1nc(C)cc(C)c1C#N)c1ccccc1` (stereo unspecified), the IC50 turned out to be 370 nM. This IC50 is about 2.4-fold lower than that of the molecule before.

`Cc1cccc(C)c1CNc1ccnc2cc(Br)ccc12` gave an IC50 of 170 nM.

Molecule `O=C(NCCc1ccccc1)N(Cc1ccccc1-c1cccc(CNC2CCCC2)c1)C1CCN(Cc2ccccc2)CC1` registered an IC50 of 830 nM.

Regarding `CCOc1cc(C)ccc1N1CCN(CCCCNC(=O)c2ccc(NC(=O)c3ccc(Cl)cc3)cc2)CC1`, the IC50 was found to be 640 nM.

The molecule `CSc1sc(NC(=O)Nc2cccc(C(F)(F)F)c2)cc1C#N` yielded an IC50 of 910 nM.

`Cc1ccccc1C1CCN(C2CCC(NC(=O)/C=C/c3ccc(F)c(F)c3)CC2)CC1` (stereo unspecified) came in with an IC50 of 950 nM.

The molecule `O=C(Nc1ccc(OC2CCN(Cc3ccsc3)CC2)c(Cl)c1)c1ccco1` gave an IC50 of 780 nM.

`N#Cc1ccc2c(c1)CCN(CCC1CCC(NC(=O)c3cccc(-c4ccc(F)cc4)c3)CC1)CC2` (stereo unspecified) gave an IC50 of 820 nM. This IC50 and that of the molecule before are within 1.5-fold of each other.

On to `COc1ccc(CCCc2nc(N)nc(N)c2-c2ccc(Cl)cc2)cc1`, for which the IC50 stood at 40 nM.

Molecule `O=C(NCCNc1ccnc2cc(Cl)ccc12)c1ccccc1F` returned an IC50 of 660 nM.

Consider `O=C(Nc1ccc2c(c1)CCC2)N[C@H]1CCN(CCCCCNC(=O)[C@@H]2C[C@H]2c2ccc(Cl)c(Cl)c2)C1`, for which the IC50 is 1080 nM.

The molecule `CCN(CC)CCN(Cc1ccc(-c2ccc(C(F)(F)F)s2)cc1)C(=O)Cn1c(CCc2cccc(F)c2F)nc(=O)c2ccccc21` displayed an IC50 of 990 nM.

As for `CN(Cc1ccccc1)C(=O)c1nn(CCCN2CCC(N3CCCC3)CC2)cc1-c1ccc(Cl)c(Cl)c1`, the IC50 stood at 770 nM. This IC50 and that of the molecule before are within 1.5-fold of each other.

Take `CC(C)Sc1nc(-c2ccccc2)nc2c1COC(C)(C)C2`: the IC50 worked out at 860 nM.

`Cc1c(-c2ccc(C(=O)NC3CC(C)(C)NC(C)(C)C3)cc2)[nH]c2cc(Cl)c(Cl)cc12` displayed an IC50 of 750 nM. The IC50 values of the last two molecules are within 1.5-fold of each other.

For the molecule `O=C(Nc1ccccc1)N(Cc1cccc(-c2cccc(CNCc3ccc4c(c3)OCO4)c2)c1)C1CCN(Cc2ccccc2)CC1`, the IC50 is 280 nM.

The molecule `Nc1nc(NCC2CCC(CNS(=O)(=O)c3cccc4ccccc34)CC2)nc2ccccc12` (stereo unspecified) showed an IC50 of 800 nM.

`O=C(c1ccc(-c2ccc(-c3nc4ccc(C(F)(F)F)cc4[nH]3)s2)cc1)N1CCN(CCc2ccccc2)CC1`: the IC50 stood at 590 nM.

For `N#Cc1cccc(NC(=O)NC2CCN(CCCCCNC(=O)[C@@H]3C[C@H]3c3ccc(Cl)c(Cl)c3)CC2)c1`, the IC50 is 790 nM.

The molecule `COc1cc(CCOc2c(C)nc(N)nc2N)cc(OC)c1OC` came in with a concentration for half-maximal inhibition (IC50) of 20 nM.

Molecule `Cc1ccc2ncc(Cl)c(CCN3CCC(NCc4ccc5c(n4)NC(=O)CS5)CC3)c2n1` had an IC50 of 1100 nM.

In turn, `COc1ccc(Nc2nccc(N3CCC(NC(=O)C(C)c4ccc(Cl)cc4)C3)n2)cc1` (stereo unspecified) returned an IC50 of 1010 nM.

`O=C(Nc1cccc(CN2CCCN(Cc3ccc(O)cc3)CC2)c1)c1cccc(F)c1` yielded an IC50 of 900 nM.

Consider `COc1ccccc1CCNc1nc(C)cc(N[C@@H](Cc2ccccc2)C(=O)NCCOc2ccccc2)n1`, for which the IC50 came to 1210 nM. This IC50 and that of the molecule before are within 1.5-fold of each other.

In turn, `Cc1cc2ncn(-c3nccc(NCc4cccnc4)n3)c2cc1C` returned an IC50 of 660 nM.

Regarding `Cc1ccc(Oc2ccc(CNc3nc(Nc4cccc(F)c4)nc(Nc4cccc(F)c4)n3)cc2)cc1`, the IC50 was 1210 nM.

`CC(C)CN1CCN(CCNc2c3ccccc3nc3ccccc23)CC1` came in with an IC50 of 820 nM.

Turning to `N#Cc1c(Cl)cccc1Oc1ccc(S(=O)(=O)N2CCC(CN3CCC(c4c[nH]c5ccccc45)CC3)CC2)cc1`, the IC50 is 750 nM.

Molecule `CN1CCN(c2ccnc3ccc(NC(=O)Nc4cccc5c(-c6ccncc6)cccc45)cc23)CC1` displayed an IC50 of 880 nM.

For `Cc1nc(-c2ccc(-c3ccc(NC(=O)Nc4ccc(I)c(OCCN(C)C)c4)cc3)c(C)c2)no1`, the IC50 amounted to 370 nM.

For the molecule `Cc1ccc2nc(C)cc(NN=Cc3ccc(Cl)cc3)c2c1`, the IC50 was found to be 990 nM.

Molecule `FC(F)(F)c1cccc(Nc2nc3nonc3nc2NC2C3CC4CC(C3)CC2C4)c1` (stereo unspecified) showed an IC50 of 660 nM.

`Cc1cc(-c2cccc(CNC3CCCC3)c2)ccc1S(=O)(=O)NCCN1CCCC1`: the IC50 amounted to 1240 nM.

The molecule `CCOC(=O)c1c(-c2ccccc2)c(C(=O)OCC)n2ccccc12` displayed a half-maximal inhibitory concentration (IC50) of 610 nM.

`FC(F)(F)c1ccc2nc(-c3ccc(-c4ccc(CNCC5CCCO5)cc4)s3)[nH]c2c1` (stereo unspecified) displayed an IC50 of 160 nM.

On to `NC(N)=NC(=O)Nc1cc(Cl)c(Br)c(Cl)c1`, for which the IC50 turned out to be 470 nM.

Regarding `Cn1cc(C(=O)Nc2cccc(-c3cccc(-c4nc5ccc(F)cc5[nH]4)c3)c2)n(C)c1=O`, the IC50 stood at 390 nM.
